BindingDB's records for patent US12435061 (Kamari Pharma, 2025)

Target: T1, Transient receptor potential cation channel subfamily V member 3 (Homo sapiens, UniProt Q8NET8)
T1 sequence (Q8NET8 whole entry): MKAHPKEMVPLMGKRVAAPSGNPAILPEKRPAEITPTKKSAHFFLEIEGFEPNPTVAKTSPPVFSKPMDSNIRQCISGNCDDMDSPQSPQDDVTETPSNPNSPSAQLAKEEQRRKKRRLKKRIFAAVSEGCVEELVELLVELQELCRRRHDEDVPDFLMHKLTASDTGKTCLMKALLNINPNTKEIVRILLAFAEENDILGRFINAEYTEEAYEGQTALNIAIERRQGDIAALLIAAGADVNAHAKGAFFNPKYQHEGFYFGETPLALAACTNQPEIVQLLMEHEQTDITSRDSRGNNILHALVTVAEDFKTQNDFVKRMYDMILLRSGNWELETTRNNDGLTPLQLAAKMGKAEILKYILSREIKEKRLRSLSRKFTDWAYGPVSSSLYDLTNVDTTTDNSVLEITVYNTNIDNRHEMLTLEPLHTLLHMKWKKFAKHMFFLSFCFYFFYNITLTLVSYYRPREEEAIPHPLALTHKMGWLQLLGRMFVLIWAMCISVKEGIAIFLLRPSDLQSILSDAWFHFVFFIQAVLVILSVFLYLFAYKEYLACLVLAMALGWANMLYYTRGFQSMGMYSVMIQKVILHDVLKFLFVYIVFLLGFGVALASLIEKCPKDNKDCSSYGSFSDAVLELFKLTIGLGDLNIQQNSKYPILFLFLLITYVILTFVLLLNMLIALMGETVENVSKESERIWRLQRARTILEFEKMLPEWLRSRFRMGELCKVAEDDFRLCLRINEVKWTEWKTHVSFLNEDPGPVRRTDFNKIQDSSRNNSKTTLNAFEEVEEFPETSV
Test: Patch Clamp Experiments
Experimental: TRPV3 cells were induced 20-48 hours, removed from growth plates, and replated at low density (to attain good single-cell physical separation) on glass coverslips for measurement. In some cases, cells were grown in low density overnight on glass coverslips. Patch clamp recordings were made in the whole-cell mode with a holding potential of −40 mV. Every 5 seconds, a voltage ramp was applied from −120 to +100 mV, 400 ms in duration. Currents elicited were quantified at −80 mV and +80 mV. […] External solution was Ringer's solution described above.

Compound	IC50 [µM]
CCc1ccccc1Oc1ccc(N2CC[C@H](Oc3ccc(C(F)(F)F)cn3)C2)c(CO)n1 [US12435061, Compound 1-212]	> 3.2
O=[N+](O)c1cc(-c2ccccc2)ccc1N1CC[C@H](Oc2ccc3cc(Cl)ccc3n2)C1 [US12435061, Compound 1-70]	> 3.2
